{
  "source": "paper PMC5648786",
  "about": "“Characterization of a dual function macrocyclase enables design and use of efficient macrocyclization substrates” (Nature Communications, 2017)",
  "molecules": {"B1": {"name": "35mer substrate (amatoxin peptide precursor, full-length substrate) (peptide)", "peptide": "MFDTNATRLPIWGIGCNPWTAEHVDQTLASGNDIC", "notes": "also called 35mer peptide"}, "B2": {"name": "truncated recognition sequence TLASGNDIC (9 residues) (peptide)", "peptide": "TLASGNDIC"}, "B3": {"name": "truncated recognition sequence VDQTLASGNDIC (12 residues) (peptide)", "peptide": "VDQTLASGNDIC"}},
  "key": {"[1]": {"target": "T1, GmPOPB-S577A (inactive mutant) (Galerina marginata, UniProt H2E7Q8, S577A)", "T1 construct": "His-tag (TEV-cleavable) (cleaved yes); made in house; host or cells: E. coli BL21(DE3)", "T1 sequence (H2E7Q8 1-730 S577A)": "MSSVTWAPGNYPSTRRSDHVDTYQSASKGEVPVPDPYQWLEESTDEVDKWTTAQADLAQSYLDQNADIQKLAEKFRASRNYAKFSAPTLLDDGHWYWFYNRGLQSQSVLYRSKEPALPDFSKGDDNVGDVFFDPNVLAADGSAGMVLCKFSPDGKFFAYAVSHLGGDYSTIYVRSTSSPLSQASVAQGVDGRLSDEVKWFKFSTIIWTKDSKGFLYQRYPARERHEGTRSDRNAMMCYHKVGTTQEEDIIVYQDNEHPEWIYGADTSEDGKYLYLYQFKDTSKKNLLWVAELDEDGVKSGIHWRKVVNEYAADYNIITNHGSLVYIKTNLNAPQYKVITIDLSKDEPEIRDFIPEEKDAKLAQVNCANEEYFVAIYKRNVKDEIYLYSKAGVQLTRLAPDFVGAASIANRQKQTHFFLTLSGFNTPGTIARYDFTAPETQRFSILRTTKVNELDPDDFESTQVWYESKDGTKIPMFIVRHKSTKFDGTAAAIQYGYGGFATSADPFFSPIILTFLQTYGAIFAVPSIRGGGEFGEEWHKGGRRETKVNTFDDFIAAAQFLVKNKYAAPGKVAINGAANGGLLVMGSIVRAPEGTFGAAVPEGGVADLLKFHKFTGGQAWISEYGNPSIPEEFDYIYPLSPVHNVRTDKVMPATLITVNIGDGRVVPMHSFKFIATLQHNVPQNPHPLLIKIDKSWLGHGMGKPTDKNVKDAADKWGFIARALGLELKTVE", "assay": "Isothermal titration calorimetry, peptide binding to inactive mutant GmPOPB_S577A", "settings": "ITC, GmPOPB_S577A; for Binding detected by ITC: peptide concentrations up to 1 mM; for -TΔS / ΔG / ΔH: 20 °C, average ± SEM", "procedure": "All titrations were performed on a MicroCal PEAQ-ITC instrument (MicroCal, Malvern Instruments, Northamption, MA, USA) and the results were fitted with PEAQ-ITC analysis software (MicroCal, Malvern Instruments, Northampton, MA, USA). Peptide ligand solutions were prepared in 20 mM Tris pH 8.0 containing 1 mM DTT, prior to buffer exchange by three cycles of dilution in 50 mM Tris pH 8.0 with 50 mM NaCl, 10 mM DTT followed by concentration using a Microsep Advance centrifugal device equipped with a 1 kDa cut off membrane (Pall Corporation). The same three cycles of dilution in 50 mM Tris pH 8.0 with 50 mM NaCl and 10 mM DTT followed by concentration were performed with the protein to be used in the titration using a Vivaspin protein concentrator spin column with a 30 kDa cut off (GE Healthcare). A final dilution to the concentration to be used for titration was performed using the buffer that passed through during the protein buffer exchange, both for the protein and peptide to be used to avoid any possible buffer mismatch. […] Titrations of peptide into protein solutions were conducted at 20 °C. For all the titration experiments, a total of 19 injections of 2 μL were made at 120 s intervals. The heat released due to the first injection (0.4 μL) was excluded from data analyses. […] Equilibrium dissociation constants (K d) as well as ΔH and ΔS values for binding of each peptide to protein were obtained by fitting the calorimetric data with a single-site model using the stoichiometry parameter n fixed at 1.0 using Malvern PEAQ-ITC data analysis software. […] We performed all ITC binding experiments at least in duplicate, and calculations of average and standard error of the mean were performed with GraphPad Prism."}, "[2]": {"target": "T1, GmPOPB-S577A (inactive mutant)", "settings": "ITC, GmPOPB_S577A, cited from earlier work", "text": "Peptide Sequence Kd (μM) ΔG ΔH -TΔS N (kcal mol-1) (kcal mol-1) (kcal mol-1) measurements 9mer IW GIGCNPW ND ND ND ND 10mer IW GIGCNPW T 83 ± 17 -5.5 ± 0.1 -3.1 ± 0.5 -2.4 ± 0.3 2 11mer IW GIGCNPW TA 39 ± 18 -5.9 ± 0.3 -1.5 ± 0.7 […] 2 12mer IW GIGCNPW TAE 21 ± 5 -6.3 ± 0.1 -1.0 ± 0.3 -5.3 ± 0.4 2 13mer IW GIGCNPW TAEH 2.4 ± 0.1 -7.3 ± 0.1 -0.6 ± 0.2 -6.9 ± 0.2 2 14mer IW GIGCNPW TAEHV 9.5 ± 1.1 -6.7 ± 0.1 -0.9 ± 0.2 -5.8 ± 0.2 2 9mer- […] 121 ± 19 -5.3 ± 0.1 -6.4 ± 1.6 2.6 ± 1.5 3 recognition sequence 12mer- ..."}, "GmPOPB-S577A": {"target": "T2, GmPOPB-S577A (Galerina marginata, UniProt H2E7Q8, S577A)", "T2 sequence": "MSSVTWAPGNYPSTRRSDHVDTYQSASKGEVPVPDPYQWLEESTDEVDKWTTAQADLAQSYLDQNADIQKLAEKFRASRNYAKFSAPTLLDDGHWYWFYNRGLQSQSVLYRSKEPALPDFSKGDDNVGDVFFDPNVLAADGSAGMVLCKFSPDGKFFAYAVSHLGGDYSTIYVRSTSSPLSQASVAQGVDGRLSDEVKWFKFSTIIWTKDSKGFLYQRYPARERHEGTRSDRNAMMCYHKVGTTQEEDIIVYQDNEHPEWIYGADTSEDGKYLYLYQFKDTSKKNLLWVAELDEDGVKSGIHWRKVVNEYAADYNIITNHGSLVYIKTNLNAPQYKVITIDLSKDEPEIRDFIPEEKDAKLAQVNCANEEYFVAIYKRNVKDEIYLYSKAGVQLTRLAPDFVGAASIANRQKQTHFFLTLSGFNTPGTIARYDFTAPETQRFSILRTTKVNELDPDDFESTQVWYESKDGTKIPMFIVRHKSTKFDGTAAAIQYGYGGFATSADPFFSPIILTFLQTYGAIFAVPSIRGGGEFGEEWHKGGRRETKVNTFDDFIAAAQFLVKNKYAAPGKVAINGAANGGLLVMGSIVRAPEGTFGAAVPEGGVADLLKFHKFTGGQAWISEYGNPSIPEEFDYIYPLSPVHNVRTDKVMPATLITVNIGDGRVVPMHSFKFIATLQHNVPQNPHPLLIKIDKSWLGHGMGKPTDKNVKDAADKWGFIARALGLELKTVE", "assay": "ITC", "settings": "both partners purified"}, "GmPOPB-H698A": {"target": "T3, GmPOPB-H698A (Galerina marginata, UniProt H2E7Q8 1-730, H698A)", "T3 sequence": "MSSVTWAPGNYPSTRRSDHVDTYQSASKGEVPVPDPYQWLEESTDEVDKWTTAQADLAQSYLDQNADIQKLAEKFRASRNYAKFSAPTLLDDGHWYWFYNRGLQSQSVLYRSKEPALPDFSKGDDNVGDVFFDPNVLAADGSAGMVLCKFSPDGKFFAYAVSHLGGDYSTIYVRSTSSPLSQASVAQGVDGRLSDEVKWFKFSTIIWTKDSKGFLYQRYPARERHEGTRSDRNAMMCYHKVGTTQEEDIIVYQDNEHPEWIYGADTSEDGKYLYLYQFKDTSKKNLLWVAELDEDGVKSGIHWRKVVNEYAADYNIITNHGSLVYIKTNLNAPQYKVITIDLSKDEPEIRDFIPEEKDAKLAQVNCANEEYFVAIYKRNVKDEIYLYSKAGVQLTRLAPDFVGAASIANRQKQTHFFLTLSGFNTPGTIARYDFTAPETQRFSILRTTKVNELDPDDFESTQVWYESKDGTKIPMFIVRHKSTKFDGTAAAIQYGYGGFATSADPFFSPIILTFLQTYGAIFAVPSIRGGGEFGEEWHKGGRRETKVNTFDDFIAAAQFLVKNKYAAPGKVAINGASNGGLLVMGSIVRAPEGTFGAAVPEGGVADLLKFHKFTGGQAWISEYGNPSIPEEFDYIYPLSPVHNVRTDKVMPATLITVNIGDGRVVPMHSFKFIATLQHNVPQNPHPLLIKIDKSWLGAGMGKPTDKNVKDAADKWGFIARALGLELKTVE", "assay": "crystal structure; co-crystallization of 100 mg/ml protein with two-fold molar excess of peptide, sitting drop, 20 °C, 12.5 mM hexammine cobalt chloride as additive", "settings": "both partners purified"}, "[3]": {"settings": "average ± SEM, previously published ref 21"}},
  "note": "Like-named read-outs stand apart in the source and are kept apart here. No end group written: not given here.",
  "data": [
    {"molecule": "MFDTNATRLP [leader peptide]", "values": [
      {"measurement": "Binding detected by ITC", "setting": "[1]", "result": "no detectable binding"},
      {"measurement": "Binding detected by ITC", "setting": "[1]; listed as 10-residue leader", "result": "does not bind"}
    ]},
    {"molecule": "TLASGNDIC [9mer-recognition sequence]", "values": [
      {"measurement": "-TΔS", "setting": "[1]", "result": "2.6 ± 1.5", "unit": "kcal/mol"},
      {"measurement": "ΔG", "setting": "[1]", "result": "-5.3 ± 0.1", "unit": "kcal/mol"},
      {"measurement": "ΔH", "setting": "[1]", "result": "-6.4 ± 1.6", "unit": "kcal/mol"}
    ]},
    {"molecule": "VDQTLASGNDIC [12mer-recognition sequence]", "values": [
      {"measurement": "-TΔS", "setting": "[1]", "result": "16.3 ± 3.0", "unit": "kcal/mol"},
      {"measurement": "ΔG", "setting": "[1]", "result": "-7.1 ± 0.1", "unit": "kcal/mol"},
      {"measurement": "ΔH", "setting": "[1]", "result": "-23.5 ± 3.1", "unit": "kcal/mol"}
    ]},
    {"molecule": "WTAEHVDQTLASGNDIC [17mer-recognition sequence]", "values": [
      {"measurement": "Kd", "setting": "[2]; 20 °C, 50 mM Tris pH 8.0, 50 mM NaCl, 10 mM DTT, average ± SEM, previously published ref 21", "result": "430 ± 10", "unit": "nM"},
      {"measurement": "-TΔS", "setting": "[2]; [3]", "result": "1.7 ± 0.4", "unit": "kcal/mol"},
      {"measurement": "ΔG", "setting": "[2]; [3]", "result": "-8.5 ± 0.1", "unit": "kcal/mol"},
      {"measurement": "ΔH", "setting": "[2]; [3]", "result": "-10.2 ± 0.4", "unit": "kcal/mol"},
      {"measurement": "Difference in ΔG between the 17mer recognition sequence and the 25mer peptide", "setting": "[2]", "result": 1.34, "unit": "kcal/mol"},
      {"measurement": "Kd", "setting": "[2]; previously published ref 21", "result": "430 ± 10", "unit": "nM"}
    ]},
    {"molecule": "B1", "values": [
      {"measurement": "Kd", "setting": "GmPOPB-S577A", "result": 120, "unit": "nM"},
      {"measurement": "binding result", "setting": "GmPOPB-H698A", "result": "binds"}
    ]},
    {"molecule": "B2", "values": [
      {"measurement": "Kd", "setting": "GmPOPB-S577A", "result": 121000, "unit": "nM"}
    ]},
    {"molecule": "B3", "values": [
      {"measurement": "Kd", "setting": "GmPOPB-S577A", "result": 5000, "unit": "nM"}
    ]}
  ]
}
